Source: article PMC8232238 (Cells, 2021)

Assays:
[1] = test system: acetylated histone in A549 cells; experiment: Histone acetylation in A549 cells, immunostaining with high content imaging; format: cell-based, human; settings: 24 h
Method: (§1) To confirm the observed activities of the selected test compounds against HDAC6, the acetylation status of tubulin in the human lung cancer cell line A549 was investigated by immunostaining combined with automated high content image analysis (see supplementary material for full details). […] The apparent drop in histone acetylation by both compounds above 10 μM is indicative of a potential cytotoxicity at higher concentrations (data not shown).
(§2) Figure 5 Cell-based assessment of HDAC activity and selectivity. Dose and time-dependency of tubulin and histone acetylation by test compounds. A549 cells were treated with (A,B) different concentrations (0–50 µM) of CF011, KNH019 and tubastatin for 24 h or with (C,D) 1 µM over different time intervals before (A,C) tubulin acetylation or (B,D) histone acetylation were automatically quantified using high content imaging. Data represent the average of four independent experiments with four replicate wells/experiments. The statistical significances of effects compared to the untreated control were analysed using Brown–Forsythe and Welch one-way ANOVA analyses using Graph Pad Prism. The significance was set as * 0.05 > p ≥ 0.01, ** 0.01 > p ≥ 0.002. Error bars represent the Standard Error of Mean (SEM). (E) Representative fluorescence images show tubulin acetylation (yellow), histone acetylation (red) and nuclear counterstain (DAPI, blue) after 24 h of exposure to test compounds. Secondary antibodies were detected using excitation/emission filters for CY3 (excitation: 542/27 nm, emission: 597/45 nm), CY5 (excitation: 632/22 nm, emission: 684/25 nm) and DAPI (excitation: 390/18 nm, emission: 435/48 nm), respectively. […]
(§3) S2.2 Cell Culture, Treatment and Immunostaining:
(§4) A549 cells (ATCC® CCL-185™, In Vitro Technologies Pty. Ltd., Victoria, Australia) were cultured in low glucose Dulbecco’s Modified Eagle Media (DMEM, 1 g/L glucose, 0.584 g/L L-glutamine, 3.7 g/L sodium bicarbonate, 10 % fetal bovine serum) under standard conditions (> 90 % humidity, 37 °C temperature, 5 % CO 2). For experiments, 5,000 cells/ well were seeded in 100 µl serum free DMEM in 384 well plates (µCLEAR®, Greiner) and left to adhere for 24 hours before the treatment. Cells were treated with 100 µl of test compound -containing media for up to 24 hours before cells were fixed with 4 % paraformaldehyde (PFA) solution in PBS (10 minutes at room temperature (RT)) and permeabi lized with 50 µl of 0.5 % Triton X -100 in PBS. Subsequently, cells were blocked in PBST (5% fetal bovine serum, 5% bovine serum albumin, 5% goat serum, 0.1% Tween 20 in PBS) before stained with anti - acetylated tubulin (T7451, Sigma Aldrich; 1:1,000) and an ti-acetylated histone antibody (ab47915, Abcam; 1:1,000) overnight at 4 °C. Subsequently, cells were exposed to secondary antibodies (goat anti-mouse Alexa fluor 594 (Invitrogen; 1:10,000) and goat anti -rabbit Alexa fluor 647 (Invitrogen; 1:10,000) in PBST ) and DAPI solution (Invitrogen; 1:10,000 in PBST) before images were acquired.
(§5) Fluorescence images were acquired (10x magnification, 2 -D format) using the InCell 2200 high content imaging system (V7.3, GE Healthcare life sciences) wi th CY3 (excitation: 542/27 nm, emission: 597/45 nm), CY5 (excitation: 632/22 nm, emission: 684/25 nm) and DAPI (excitation: 390/18 nm, emission:
435/48 nm) filters. […] Data was expressed as % Relative Fluorescence Units (RFU) […]

[2] = target: T1, HDAC8 (Homo sapiens, UniProt Q9BY41); experiment: HDAC8 enzyme inhibition assay (single point and 10-dose IC50, Reaction Biology); format: biochemical
T1 construct: purchased Reaction Biology corporation (contract assay)
T1 sequence (Q9BY41 1-377): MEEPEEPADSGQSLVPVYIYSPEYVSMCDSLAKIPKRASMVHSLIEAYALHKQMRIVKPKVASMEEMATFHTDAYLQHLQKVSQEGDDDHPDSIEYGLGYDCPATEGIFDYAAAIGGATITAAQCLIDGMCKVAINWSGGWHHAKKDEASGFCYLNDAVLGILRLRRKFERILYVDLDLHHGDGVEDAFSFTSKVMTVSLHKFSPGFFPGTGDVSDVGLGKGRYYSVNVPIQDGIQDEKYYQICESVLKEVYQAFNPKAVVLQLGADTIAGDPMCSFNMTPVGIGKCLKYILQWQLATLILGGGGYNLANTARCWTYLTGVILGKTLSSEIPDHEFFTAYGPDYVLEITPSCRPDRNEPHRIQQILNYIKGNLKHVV
Method: (§6) Against HDAC6, inhibition was determined using 0.01 µM of the inhibitor.
All IC50 measurements we performed by Reaction Biology corporation. Compounds were tested in
dilution starting at 1 uM. […]
(RHK(Ac)K(Ac)AMC). IC50 values were calculated using the GraphPad Prism 4 program based on a
sigmoidal dose-response equation. […]

[3] = target: T2, HDAC11 (Homo sapiens, UniProt Q96DB2); experiment: HDAC11 enzyme inhibition assay (single point and 10-dose IC50, Reaction Biology); format: biochemical
T2 construct: purchased Reaction Biology corporation (contract assay)
T2 sequence (Q96DB2 1-347): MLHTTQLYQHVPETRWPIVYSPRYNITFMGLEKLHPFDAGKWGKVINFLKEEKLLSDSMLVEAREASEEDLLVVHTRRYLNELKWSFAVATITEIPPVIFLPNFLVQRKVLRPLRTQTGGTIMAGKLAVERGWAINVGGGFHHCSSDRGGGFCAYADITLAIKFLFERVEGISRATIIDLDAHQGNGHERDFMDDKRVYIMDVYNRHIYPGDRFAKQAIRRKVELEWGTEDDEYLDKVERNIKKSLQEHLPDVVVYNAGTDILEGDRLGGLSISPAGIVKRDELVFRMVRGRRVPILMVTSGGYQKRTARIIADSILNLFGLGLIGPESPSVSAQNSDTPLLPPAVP
Method: as §6
All IC50 measurements we performed by Reaction Biology corporation. Compounds were tested in […]
dilution starting at 1 uM.
Substrate for HDAC11: 50 uM Fluorogenic HDAC Class2a Substrate […]
(Trifluoroacetyl Lysine).
(RHK(Ac)K(Ac)AMC). IC50 values were calculated using the GraphPad Prism 4 program based on a sigmoidal dose-response equation. […]

[4] = test system: acetylated tubulin in A549 cells; experiment: Tubulin acetylation in A549 cells, immunostaining with high content imaging; format: cell-based, human; settings: 24 h
Method: as §1, §2, §3, §4, §5
435/48 nm) filters. Two images/well at predefined positions were automatically acquired with 4 replicate wells for each treatment condition/ experiment. At least 3 independent experiments were conducted for each condition. Acquired images were automatically processed using InCarta software (v1.6, GE Healthcare life sciences). All images were manually checked for ar tefacts. Images with less than 30 cells were excluded from the analysis. Excel and GraphPad Prism was used for statistical analysis and graphical representation. Data was expressed as % Relative Fluorescence Units (RFU) […]

[5] = average of two independent measurements
[6] = single point, inhibitor 1.0 μM, average of two measurements, ±2%

What does the source list for `O=C(CCCCCN1C(=O)c2cccc3cc(NC(=O)c4ccccc4)cc(c23)C1=O)NO` [KNH019]?
Histone acetylation in representative immunostaining images ([1]; 10 µM): strongly induce; Concentration from which histone acetylation was significantly increased ([1]; compared to untreated cells): 10^−2 mM; IC50 [2, 5]: 2950 ± 460 nM; Selectivity factor (SF) HDAC8 against HDAC6 ([2]; selectivity for HDAC6 over HDAC8): 2950; HDAC8 average enzyme isoform activity (percentage of full enzyme activity) [2, 6]: 69.3%; IC50 [3, 5]: 290 ± 35 nM; Selectivity factor (SF) HDAC11 against HDAC6 ([3]; selectivity for HDAC6 over HDAC11): 290; HDAC11 average enzyme isoform activity (percentage of full enzyme activity) [3, 6]: 67.5%; Increase of tubulin acetylation compared to untreated cells (up to) ([4]; 0-50 µM, dose-dependent): ~1.5 fold; Tubulin acetylation in representative immunostaining images ([4]; 10 µM): strongly induce; Concentration from which tubulin acetylation was significantly increased ([4]; compared to untreated cells): 10^−6 mM
